Data published in patent US11566007B2, “Ras inhibitors” (Revolution Medicines, Inc., priority 2019, dated 2023).

Legend:
K-Ras G13C = K-Ras G13C (Homo sapiens (Human), UniProt P01116+P62937, G13C); assay: Ras-Raf (BRAF RBD) disruption / FRET / MOA assay, KRAS G13C; format: biochemical; conditions: KRAS G13C; Ras-Raf disruption/FRET/MOA assay; read-out: IC50* KRAS G13C FRET data
Outline: (§1)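 Ras:RAF disruption was scored as a fall in TR-FRET ratio relative to DMSO. Compound ranged in 3-fold steps over 10 points from 30 μM final; incubation ran 3 h at 25° C, detection antibodies a further 1.5 h. Reported as IC50.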

KRAS G12D = KRAS G12D (Homo sapiens (Human), UniProt P01116+P62937, G12D); assay: Ras-Raf (BRAF RBD) disruption / FRET / MOA assay, KRAS G12D; format: biochemical; conditions: Ras-Raf disruption/FRET/MOA assay; class symbols; read-out: KRAS G12D FRET data IC50
Outline: as §1

NCI-H358 (K-Ras G12C) = assay: CellTiter-Glo cell viability assay, NCI-H358; format: cell-based, human; conditions: Homo sapiens, NCI-H358, 120 h, NCI-H358, 5-day treatment; class symbols; read-out: Additional H358 Cell Viability assay data (K-Ras G12C, IC50)
Outline: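 Viability of K-Ras mutant lines is measured by ATP luminescence after five days of compound treatment. Percent of DMSO control is calculated and dose-response data are fitted with a four-parameter logistic equation.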

NRAS G12C = NRAS G12C (Homo sapiens (Human), UniProt P01111+P62937, G12C); assay: Ras-Raf (BRAF RBD) disruption / FRET / MOA assay, NRAS G12C; format: biochemical; conditions: read-out: IC50* NRAS G12C FRET data
Outline: as §1

KRAS WT = KRAS WT (Homo sapiens (Human), UniProt P01116+P62937); assay: Ras-Raf (BRAF RBD) disruption / FRET / MOA assay, KRAS WT; format: biochemical; conditions: read-out: IC50* KRAS WT FRET data
Outline: as §1

KRAS G12V = KRAS G12V (Homo sapiens (Human), UniProt P01116+P62937, G12V); assay: Ras-Raf (BRAF RBD) disruption / FRET / MOA assay, KRAS G12V; format: biochemical; conditions: read-out: IC50* KRAS G12V FRET data
Outline: as §1

K-Ras G12C = K-Ras G12C (Homo sapiens (Human), UniProt P01116+P62937, G12C); assay: Ras-Raf (BRAF RBD) disruption / FRET / MOA assay, KRAS G12C; format: biochemical; conditions: KRAS G12C; Ras-Raf disruption/FRET/MOA assay; read-out: IC50* KRAS G12C FRET data
Outline: as §1

KRAS G12S = KRAS G12S (Homo sapiens (Human), UniProt P01116+P62937, G12S); assay: Ras-Raf (BRAF RBD) disruption / FRET / MOA assay, KRAS G12S; format: biochemical; conditions: Ras-Raf disruption/FRET/MOA assay; class symbols; read-out: KRAS G12S FRET data IC50
Outline: as §1

KRAS G13D = KRAS G13D (Homo sapiens (Human), UniProt P01116+P62937, G13D); assay: Ras-Raf (BRAF RBD) disruption / FRET / MOA assay, KRAS G13D; format: biochemical; conditions: read-out: IC50* KRAS G13D FRET data
Outline: as §1

[1] = test system: NCI-H358 cells (K-Ras G12C); assay: Potency assay: pERK in NCI-H358 cells; format: cell-based, human; conditions: Homo sapiens, NCI-H358; H358 KRAS G12C; read-out: pERK EC50
Outline: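 4 h cpd, 37 °C; 10-pt 3-fold series, 10 mM DMSO top stock, duplicates. Readout pERK: AlphaLISA SureFire Ultra or In-Cell Western (IR-800CW secondary, DRAQ5 DNA stain). IC50, 4-PL fit vs log conc.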

NRAS G12C, sequence (P01111 whole entry G12C): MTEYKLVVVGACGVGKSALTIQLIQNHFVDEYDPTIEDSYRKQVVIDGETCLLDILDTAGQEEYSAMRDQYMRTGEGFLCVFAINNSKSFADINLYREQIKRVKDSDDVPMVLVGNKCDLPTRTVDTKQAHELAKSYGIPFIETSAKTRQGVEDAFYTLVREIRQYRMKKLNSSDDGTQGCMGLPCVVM
NRAS G12C, sequence (P62937 whole entry): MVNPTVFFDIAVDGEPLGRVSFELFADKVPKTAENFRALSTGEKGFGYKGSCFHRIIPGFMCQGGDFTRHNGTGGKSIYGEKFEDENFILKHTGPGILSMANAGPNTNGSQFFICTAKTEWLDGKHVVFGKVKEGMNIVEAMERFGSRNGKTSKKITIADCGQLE
KRAS G12D, sequence (P01116-2 other isoform, or with tags, fused parts or gaps G12D): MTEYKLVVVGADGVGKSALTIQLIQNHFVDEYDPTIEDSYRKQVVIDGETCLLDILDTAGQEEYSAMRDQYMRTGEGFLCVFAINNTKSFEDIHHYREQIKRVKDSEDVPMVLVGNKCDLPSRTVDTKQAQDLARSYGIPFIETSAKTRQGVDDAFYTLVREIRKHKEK
KRAS G12D, sequence (P62937 whole entry): as the sequence (P62937 whole entry) above
KRAS G12S, sequence (P01116-2 other isoform, or with tags, fused parts or gaps G12S): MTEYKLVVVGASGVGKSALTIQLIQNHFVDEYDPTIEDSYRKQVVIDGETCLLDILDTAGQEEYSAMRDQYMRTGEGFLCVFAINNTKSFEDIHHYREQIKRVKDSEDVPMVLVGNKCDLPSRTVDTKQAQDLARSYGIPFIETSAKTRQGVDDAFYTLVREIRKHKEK
KRAS G12S, sequence (P62937 whole entry): as the sequence (P62937 whole entry) above
KRAS WT, sequence (P01116-2 other isoform, or with tags, fused parts or gaps): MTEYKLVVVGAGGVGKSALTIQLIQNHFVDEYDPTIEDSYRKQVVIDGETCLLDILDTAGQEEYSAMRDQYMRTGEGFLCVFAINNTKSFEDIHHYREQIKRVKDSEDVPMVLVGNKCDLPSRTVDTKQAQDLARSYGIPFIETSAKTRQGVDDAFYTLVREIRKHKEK
KRAS WT, sequence (P62937 whole entry): as the sequence (P62937 whole entry) above
KRAS G12V, sequence (P01116-2 other isoform, or with tags, fused parts or gaps G12V): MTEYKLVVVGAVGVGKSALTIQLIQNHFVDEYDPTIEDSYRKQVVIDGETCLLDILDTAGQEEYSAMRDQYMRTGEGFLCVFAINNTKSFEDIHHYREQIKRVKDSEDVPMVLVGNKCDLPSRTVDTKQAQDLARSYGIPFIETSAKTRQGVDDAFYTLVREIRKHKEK
KRAS G12V, sequence (P62937 whole entry): as the sequence (P62937 whole entry) above
KRAS G13D, sequence (P01116-2 other isoform, or with tags, fused parts or gaps G13D): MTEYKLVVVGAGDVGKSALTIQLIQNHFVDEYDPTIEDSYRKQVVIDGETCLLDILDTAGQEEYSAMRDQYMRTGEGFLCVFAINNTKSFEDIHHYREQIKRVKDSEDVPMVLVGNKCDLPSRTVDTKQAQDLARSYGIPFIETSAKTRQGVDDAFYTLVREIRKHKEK
KRAS G13D, sequence (P62937 whole entry): as the sequence (P62937 whole entry) above
K-Ras G12C, sequence (P01116-2 other isoform, or with tags, fused parts or gaps G12C): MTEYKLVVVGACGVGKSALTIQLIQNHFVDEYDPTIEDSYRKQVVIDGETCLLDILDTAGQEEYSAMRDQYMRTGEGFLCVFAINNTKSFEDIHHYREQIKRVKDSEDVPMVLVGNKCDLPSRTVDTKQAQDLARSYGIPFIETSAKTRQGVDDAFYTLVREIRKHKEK
K-Ras G12C, sequence (P62937 whole entry): as the sequence (P62937 whole entry) above
K-Ras G13C, sequence (P01116-2 other isoform, or with tags, fused parts or gaps G13C): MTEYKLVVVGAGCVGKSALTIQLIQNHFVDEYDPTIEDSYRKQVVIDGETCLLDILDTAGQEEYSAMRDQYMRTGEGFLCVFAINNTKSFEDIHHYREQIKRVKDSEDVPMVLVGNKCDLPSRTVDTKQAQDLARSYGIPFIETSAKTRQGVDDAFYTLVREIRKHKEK
K-Ras G13C, sequence (P62937 whole entry): as the sequence (P62937 whole entry) above

SMILES	IC50 (K-Ras G13C) [nM]	IC50 (KRAS G12D) [µM]	IC50 (NCI-H358 (K-Ras G12C)) [nM]	IC50 (NRAS G12C) [nM]	IC50 (KRAS WT) [nM]	IC50 (KRAS G12V) [nM]	IC50 (K-Ras G12C) [nM]	IC50 (KRAS G12S) [nM]	IC50 (KRAS G13D) [nM]	EC50 [1] [µM]
C=CC(=O)N1CC(N(C)C(=O)N(C)[C@H](C(=O)N[C@H]2Cc3nc(cs3)-c3ccc4c(c3)c(c(-c3cccnc3[C@H](C)OC)n4CC)CC(C)(C)COC(=O)[C@@H]3CCCN(N3)C2=O)C(C)C)C1 (atropisomer, axis not shown) [Example A435]	100 to 1000	1 to 10	< 10	< 10	100 to 1000	100 to 1000	10 to 100	100 to 1000	1000 to 10000	< 5
C=CC(=O)N1CCCN(C(=O)N(C)[C@H](C(=O)N[C@H]2Cc3nc(cs3)-c3ccc4c(c3)c(c(-c3cccnc3[C@H](C)OC)n4CC)CC(C)(C)COC(=O)[C@@H]3CCCN(N3)C2=O)C(C)C)CC1 (atropisomer, axis not shown) [Example A436]	100 to 1000	0.1 to 1	10 to 100	10 to 100	10 to 100	100 to 1000	10 to 100	100 to 1000	100 to 1000	< 5
C=CC(=O)NCCN(C)C(=O)N(C)[C@H](C(=O)N[C@H]1Cc2nc(cs2)-c2ccc3c(c2)c(c(-c2cccnc2[C@H](C)OC)n3CC)CC(C)(C)COC(=O)[C@@H]2CCCN(N2)C1=O)C(C)C (atropisomer, axis not shown) [Example A438]	10 to 100	1 to 10	10 to 100	10 to 100	100 to 1000	100 to 1000	10 to 100	100 to 1000	100 to 1000	< 5
CCn1c(-c2cccnc2[C@H](C)OC)c2c3cc(ccc31)-c1nc(cs1)C[C@H](NC(=O)[C@H](C1CCCC1)N(C)C(=O)[C@H]1CCN(C(=O)C#CC(C)(C)N3CCC3)C1)C(=O)N1CCC[C@H](N1)C(=O)OCC(C)(C)C2 (atropisomer, axis not shown) [Example A439]	100 to 1000	> 10	< 10	10 to 100	1000 to 10000	1000 to 10000	10 to 100	1000 to 10000	1000 to 10000	< 5
CCn1c(-c2cccnc2[C@H](C)OC)c2c3cc(ccc31)-c1nc(cs1)C[C@H](NC(=O)[C@H](C(C)C)N(C)C(=O)[C@H]1CCN(C(=O)C#CC(C)(C)N3CCC3)C1)C(=O)N1CCC[C@H](N1)C(=O)OCC(C)(C)C2 (atropisomer, axis not shown) [Example A440]	100 to 1000	1 to 10	< 10	10 to 100	1000 to 10000	1000 to 10000	10 to 100	1000 to 10000	1000 to 10000	< 5
C=CC(=O)N1CC[C@H](C(=O)N(C)[C@H](C(=O)N[C@H]2Cc3cc(C(F)F)cc(n3)-c3ccc4c(c3)c(c(-c3cccnc3[C@H](C)OC)n4CC)CC(C)(C)COC(=O)[C@@H]3CCCN(N3)C2=O)C(C)C)C1 (atropisomer, axis not shown) [Example A441]	1000 to 10000	> 10	10 to 100	1000 to 10000	> 10000	> 10000	1000 to 10000	> 10000	> 10000	< 5
C=CC(=O)N1CC[C@](C#N)(C(=O)N(C)[C@H](C(=O)N[C@H]2Cc3cccc(c3)-c3ccc4c(c3)c(c(-c3cccnc3[C@H](C)OC)n4CC)CC(C)(C)COC(=O)[C@@H]3CCCN(N3)C2=O)C(C)C)C1 (atropisomer, axis not shown) [Example A443]	100 to 1000	1 to 10	< 10	10 to 100	1000 to 10000	100 to 1000	10 to 100	100 to 1000	1000 to 10000	< 5
C=CC(=O)N1CC[C@@](C#N)(C(=O)N(C)[C@H](C(=O)N[C@H]2Cc3cccc(c3)-c3ccc4c(c3)c(c(-c3cccnc3[C@H](C)OC)n4CC)CC(C)(C)COC(=O)[C@@H]3CCCN(N3)C2=O)C(C)C)C1 (atropisomer, axis not shown) [Example A444]	100 to 1000	1 to 10	< 10	10 to 100	1000 to 10000	100 to 1000	10 to 100	1000 to 10000	1000 to 10000	< 5
C=CC(=O)N1CC(OC(=O)N(C)[C@H](C(=O)N[C@H]2Cc3cccc(c3)-c3ccc4c(c3)c(c(-c3cccnc3[C@H](C)OC)n4CC)CC(C)(C)COC(=O)[C@@H]3CCCN(N3)C2=O)C(C)C)C1 (atropisomer, axis not shown) [Example A445]	100 to 1000	> 10	< 10	10 to 100	1000 to 10000	1000 to 10000	10 to 100	1000 to 10000	1000 to 10000	< 5
C=CC(=O)N1CC[C@H](C(=O)N(C)[C@H](C(=O)N[C@H]2Cc3cccc(c3)-c3ccc4c(c3)c(c(-c3cc5c(nc3[C@H](C)OC)CN(C)CC5)n4CC)CC(C)(C)COC(=O)[C@@H]3CCCN(N3)C2=O)C(C)C)C1 (atropisomer, axis not shown) [Example A446]	1000 to 10000	> 10	< 10	100 to 1000	1000 to 10000	1000 to 10000	100 to 1000	1000 to 10000	1000 to 10000	< 5
CCn1c(-c2cccnc2[C@H](C)OC)c2c3cc(ccc31)-c1cccc(c1)C[C@H](NC(=O)CCOC1CN(C(=O)C#CC(C)(C)N(C)C)C1)C(=O)N1CCC[C@H](N1)C(=O)OCC(C)(C)C2 (atropisomer, axis not shown) [Example A448]	> 10000	> 10	10 to 100	10 to 100	> 10000	> 10000	10 to 100	> 10000	> 10000	< 5
C=CC(=O)N1C[C@H](C(=O)N(C)[C@H](C(=O)N[C@H]2Cc3cccc(c3)-c3ccc4c(c3)c(c(-c3cccnc3[C@H](C)OC)n4CC)CC(C)(C)COC(=O)[C@@H]3CCCN(N3)C2=O)C(C)C)[C@@H](C)C1 (atropisomer, axis not shown) [Example A451]	100 to 1000	1 to 10	10 to 100	100 to 1000	1000 to 10000	1000 to 10000	100 to 1000	1000 to 10000	1000 to 10000	< 5
C=CC(=O)N1CC2(C1)OCN([C@H](C(=O)N[C@H]1Cc3cccc(c3)-c3ccc4c(c3)c(c(-c3cccnc3[C@H](C)OC)n4CC)CC(C)(C)COC(=O)[C@@H]3CCCN(N3)C1=O)C(C)C)C2=O (atropisomer, axis not shown) [Example A452]	10 to 100	> 10	< 10	10 to 100	100 to 1000	1000 to 10000	10 to 100	1000 to 10000	1000 to 10000	< 5
CO[C@@H](C)c1ncccc1-c1c2c3cc(ccc3n1CC(F)(F)F)-c1nc(cs1)C[C@H](NC(=O)[C@H](C(C)C)N(C)C(=O)[C@H]1CCN(C(=O)C#CC(C)(C)N3CCC3)C1)C(=O)N1CCC[C@H](N1)C(=O)OCC(C)(C)C2 (atropisomer, axis not shown) [Example A454]	100 to 1000	1 to 10	< 10	10 to 100	100 to 1000	1000 to 10000	10 to 100	1000 to 10000	1000 to 10000	< 5
C=CC(=O)N1CC[C@H](C(=O)N(C)[C@H](C(=O)N[C@H]2Cc3csc(n3)-c3ccc4c(c3)c(c(-c3cccnc3[C@H](C)OC)n4CC(F)(F)F)CC(C)(C)COC(=O)[C@@H]3CCCN(N3)C2=O)C(C)C)C1 (atropisomer, axis not shown) [Example A455]	100 to 1000	1 to 10	10 to 100	100 to 1000	100 to 1000	1000 to 10000	100 to 1000	100 to 1000	1000 to 10000	< 5
